Structures can show the parent of a compound that is named as a salt. Where two headings read alike, the source gives them in different places.
Legend:
rα9α10 AChRs = rα9α10 AChRs (Rattus norvegicus, UniProt P43144+Q9JLB5); type: cell-based
hα4β2 AChRs = hα4β2 AChRs (Homo sapiens, UniProt P17787+P43681); type: cell-based
habenular mα3β4* AChRs = habenular mα3β4* AChRs (Mus musculus, UniProt Q8R493+Q8R4G9); experiment: Patch-clamp recordings of ACh-evoked currents from MHb; type: cell-based
hα3β4 AChRs = hα3β4 AChRs (Homo sapiens, UniProt P30926+P32297); type: cell-based
hα7 AChRs = hα7 AChRs (Homo sapiens, UniProt P36544); type: cell-based
[1] = target: T1, hα3β4 AChRs ([3H]imipramine sites) (Homo sapiens, UniProt P30926+P32297); experiment: [3H]Imipramine competition binding to hα3β4 AChR-containing membranes
[2] = target: T2, hα4β2 AChRs ([3H]imipramine sites) (Homo sapiens, UniProt P17787+P43681); experiment: [3H]Imipramine competition binding to hα4β2 AChR-containing membranes
[3] = target: T1, hα3β4 AChRs ([3H]imipramine sites); conditions: ref Arias et al., cited from earlier work
[4] = target: T2, hα4β2 AChRs ([3H]imipramine sites); conditions: read-out: Kd (dissociation constant), ref Arias et al., 2010b; cited from earlier work
[5] = desensitized state, [3H]imipramine competition

CC(=O)OCC[N+](C)(C)C [ACh, acetylcholine]
nH of ACh (rα9α10 AChRs; No (±)-citalopram): 0.98 ± 0.2 | nH of ACh (rα9α10 AChRs; in the presence of 8.0 μM (±)-citalopram): 1.11 ± 0.6

CN(C)CCCC1(c2ccc(F)cc2)OCc2cc(C#N)ccc21 (racemic) [(±)-citalopram, 1-[3-(dimethylamino)propyl]-1-(4-fluorophenyl)-1,3-dihydro-5-isobenzofurancarbonitrile]
IC50 (hα4β2 AChRs): 19.1 ± 4.2 µM | nH (Hill coefficient) (hα4β2 AChRs; inhibition of (±)-epibatidine-induced Ca2+ influx, HEK293-hα4β2 cells): 1.24 ± 0.19 | IC50 (habenular mα3β4* AChRs; IC50(0), ligand concentration to produce 50% inhibition at 0 mV, one-site blocking model, Eq. (1)): 92 µM | IC50 (habenular mα3β4* AChRs; IC50, inhibition of 100 μM ACh puff-evoked currents, MHb (VI) neurons): 7.6 ± 1 µM | IC50 (hα3β4 AChRs): 5.1 ± 1.3 µM | nH (Hill coefficient) (hα3β4 AChRs; inhibition of (±)-epibatidine-induced Ca2+ influx, HEK293-hα3β4 cells): 1.00 ± 0.10 | IC50 (hα7 AChRs): 18.8 ± 1.1 µM | nH (Hill coefficient) (hα7 AChRs; inhibition of (±)-epibatidine-induced Ca2+ influx, GH3-hα7 cells): 1.44 ± 0.22 | IC50 (rα9α10 AChRs): 7.5 ± 0.9 µM | increase of the ACh EC50 value (rα9α10 AChRs; 8.0 μM (±)-citalopram, p = 0.0001): 7.5 fold | nH (Hill coefficient) (rα9α10 AChRs; inhibition of 10 μM ACh-evoked rα9α10 currents, Xenopus oocytes): 1.35 ± 0.10 | inhibition at 10 µM (rα9α10 AChRs; read-out: inhibition of ACh responses, 10 μM (±)-citalopram, 10 μM ACh, +40 mV): 43.3 ± 4.9% | inhibition at 10 µM (rα9α10 AChRs; read-out: inhibition of ACh responses, 10 μM (±)-citalopram, 10 μM ACh, −90 mV): 46 ± 4.7% | Ki [1]: 1.8 ± 0.1 µM | nH (Hill coefficient) [1, 5]: 0.74 ± 0.04 | Ki [2]: 4.1 ± 0.3 µM | Ki ([2]; Ki (binding affinity), resting state, in the presence of 0.1 κ-bungarotoxin): 5.9 ± 0.4 µM | nH (Hill coefficient) [2, 5]: 0.72 ± 0.03

CNCCC(Oc1ccc(C(F)(F)F)cc1)c1ccccc1 (centres unmarked) [fluoxetine]
Ki ([3]; hα3β4 AChR, [3H]imipramine sites, 2010a): 4.8 ± 0.5 µM

CN(C)CCCN1c2ccccc2CCc2ccccc21 [[^3H]imipramine, [^3H]Imipramine hydrochloride]
Kd ([3]; read-out: Kd (dissociation constant), hα3β4 AChRs, 2010c): 0.41 µM | Kd [4]: 0.83 µM
